From patent US20240293420A1, “PHARMACEUTICAL COMPOSITION, PREPARATION, AND PREPARATION METHOD THEREFOR AND USE THEREOF” (WUHAN LL SCIENCE AND TECHNOLOGY DEVELOPMENT CO., LTD., priority 2021, published 2024)
Values after ≈ are worked out from the molar mass of the structure shown. “Also recorded” adds a separate entry of the source.

Tests used:
[1] = Variable humidity XRPD (VH-XRPD) of crystal form III; assay type: physicochemical
From the text: The instrument parameters are as follows:
The humidity change program settings are as follows: […]

[2] = Crystal form (XRPD) in preparation process of coated tablets; assay type: physicochemical; settings: samples at stages of wet granulation and tabletting; listed as API
From the text: In order to investigate the impact of the preparation process of the preparation on the crystal form, samples were taken at different stages during the preparation process of the coated tablets according to Example 17.3 and analyzed. The analysis results are shown in Table I. The summarized results of the XRPD patterns of the products at each time point for sampling are shown in FIG. 52.
The investigation results are shown in Table J. The XRPD results of the crystal form of the coated tablet, API, and the blank excipient are shown in FIG. 53.

[3] = Crystal form transformation under humidity / drying (XRPD); assay type: physicochemical; settings: humidity or drying as stated in the value
From the text: Crystal form I can be obtained by the preparation method in Example 3. […] (FIG. 29). Combined with the DVS test results (FIG. 30), it can be seen that the mutual transformation between crystal forms I and IV is reversible.
Crystal form IV is a hygroscopic product of crystal form I under high humidity environment, and can be obtained by slurrying crystal form I or crystal form V in a mixed solvent of water/acetone with a water content of 50% to 95%.
Crystal form VI was obtained by slurrying crystal form I or crystal form V at 60° C. in a mixed solvent of water/acetone with a water content of 10% (volume ratio) at 60° C.
Crystal form VIII is a hydrate, but the hydrate is unstable.

[4] = Pharmacokinetic experiments in Beagles; assay type: in vivo; settings: Beagle, male, PO, 10 mg/kg, plasma
Protocol: The present disclosure preferred crystal forms I, III, and V of the compound in the above examples for pharmacokinetic experiments in Beagles, and the relevant experiments are as follows:
Animal: 9 Beagles, male, divided into three groups with 3 in each group, weight ranging from 10 to 13 kg (source & certificate number: Beijing Marshall Biotechnology Co., Ltd., No. 1103182011000161)
Administration mode and dosage: PO: 10 mg/kg
Preparation: 0.5% CMC-Na was used as the solvent, and 400 mg of each of the three different crystal forms of compound A were weighed and added to the corresponding 79 mL of solvent, respectively. The mixture was subjected to ultrasonication for 20 minutes, added with a stirrer, and mixed thoroughly for 3 hours (the storage period from compound preparation to animal administration at room temperature was less than 6 hours). After the drug solution became a homogeneous and fine suspension, which was observed by the naked eye, the solvent was gradually added until the specified volume reached the target concentration. The preparation was stirred for 10 minutes at room temperature before administration, and stirred continuously during administration.
Time points for sampling: the time points for blood sampling in the PO group were 0.167, 0.5, 1, 2, 4, 6, 8, and 24 hours.
Animals in the PO group were fasted overnight except for free access to water before administration, and resumed food supply 4 hours after administration.
After Beagles in the […] were administered, blood was collected from Beagles by jugular vein puncture according to the time points for sampling. About 1.0 mL of blood was collected at each time point and transferred to an anticoagulant EP tube (containing 10 μL of EDTA-K2, 375 mg/mL). The tube was gently inverted three times, stored in an ice box (no more than 30 minutes), and centrifuged at 3200 g for 10 minutes at 4° C. The plasma was transferred to an ultra-low temperature refrigerator and stored until detection.
Sample pretreatment process: 40 μL of sample was taken, and 160 μL of acetonitrile solution containing 0.1% FA and 200 ng/mL of mixed standard solution was added to precipitate the protein. The mixture was vortexed and mixed well, and the sample was centrifuged in a 4° C. centrifuge at 13000 pm for 10 minutes. 100 μL of the supernatant was transferred to another 96 deep well plate, then 100 μL of methanol:water (1:3, v:v) solution containing 0.1% FA was added thereto, and the mixture was shaken and mixed for 10 minutes.
• Ion source: ion electrospray (ESI) • Ionization mode: positive ion mode (Positive) • Detection mode (mode): multiple reaction monitoring (MRM) • Ion spray voltage: 5500 V • Ion spray temperature (turbo ion spray temp): 550° C. • Curtain gas type: nitrogen setting: 35 • Collision cell gas type (CAD gas type): nitrogen setting: medium • Nebulizing gas type (gas 1): nitrogen setting: 55.00 • Auxiliary gas type (gas 2): nitrogen setting: 55.00
• Chromatographic column: poroshell 120 EC-C18 (4.6×50 mm, 2.7 μm) • Mobile phase A: 0.1% formic acid aqueous solution • Mobile phase B: a solution of 0.1% formic acid in methanol • Auto sampler wash solution (rinse port wash solution): 50% methanol • Column temperature: 40° C. • Flow rate: 0.55 mL/min • Auto sampler temperature (sample tray temp): 10° C. • Injection volume: 3 μL • Lift of presser foot (needle stroke): 49 mm • Auto sampler rinse setting (rinse pump setting): rinse port only • Auto sampler rinse mode (rinse mode): before aspiration • Auto sampler rinse volume for needle (rinse volume): 500 μL • Dip time when rinsing the injection needle (rinse dip time): 2 seconds
The data would be analyzed using WinNonlin (version 5.2.1 Pharsight, Mountain View, CA) through a non-compartmental model to obtain PK parameters (selecting Cmax, Tmax, AUClast, T1/2, and other parameters according to different routes of administration).

[5] = Dynamic vapor sorption (DVS) test; assay type: physicochemical
[6] = Physical and chemical stability of crystal forms at 60° C. (closed) and 40° C./75% RH (open); assay type: physicochemical
Protocol: The physical and chemical stability of crystal forms I, III, and V at 60° C. (closed) and 40° C./75% RH (open) for 7 days were investigated respectively.
(closed) and 40° C./75% RH (open) for 3 months were investigated.

[7] = Solubility tests in biological media of SGF, FaSSIF and FeSSIF; assay type: physicochemical
Protocol: The instrument used for liquid chromatography analysis was Agilent HPLC 1260 series, and the analytical method is shown in the table below.
The results of solubility tests of crystal forms I, III, and V in biological media of SGF, FaSSIF, and FeSSF are as shown in Table E and FIG. 43. There was little difference in the solubility of the above three crystal forms in different biological media, and the solubility in SGF was higher than 5 mg/mL.

SMILES: COC(=O)N1CCO[C@@H](Cc2c(-c3c(F)cc(S(N)(=O)=O)cc3F)nc3cc(Cl)ccn23)C1 [Crystal form III, methyl (S)-2-((7-chloro-2-(2,6-difluoro-4-sulfamoylphenyl)imidazo[1,2-a]pyridin-3-yl)methyl)morpholine-4-carboxylate]
- crystal form at 0% RH ([1]; cycle of 40% RH-0% RH-40% RH at 25° C.): completely dehydrated at 0% RH and transformed into a new crystal form, anhydrous crystal form X
- water content at which crystal form III is stable ([1]; from DVS at 40% RH and TGA): above 1.6%
- XRPD results ([1]; procedure 6: 0% RH, 720 minutes): Anhydrous crystal form X
- XRPD results ([1]; procedure 7: 0% RH, 900 minutes): Anhydrous crystal form X
- XRPD results ([1]; procedure 10: 40% RH, 120 minutes): Crystal form III
- XRPD results ([1]; procedure 11 (end): 40% RH, 240 minutes): Crystal form III
- Crystal form in preparation process [2]: remained stable; also recorded: Crystal form III
- crystal form transformation [3]: quickly absorbed moisture under ambient humidity and became crystal form III again
- AUClast [4]: 14454 ± 3182 ng·h/mL
- Cmax [4]: 1159 ± 160 ng/mL
- T1/2 [4]: 12.9 ± 1.06 h
- Tmax [4]: 2.00 ± 0.00 h
- DVS hygroscopicity [5]: slightly hygroscopic
- XRPD before and after the DVS test [5]: no significant change in XRPD
- DVS (wt %, 80% RH) ([5]; 25° C., 80% RH): 2.7 wt %
- DVS (wt %, 90% RH) ([5]; 25° C., 90% RH): 2.8 wt %
- adsorbed water content ([5]; range of 10 to 80% RH): about 1.2%
- Purity - 7 days (peak area %) ([6]; 40° C./75% RH (open)): 99.35 peak area %
- Purity - 1 month (peak area %) ([6]; 40° C./75% RH): 99.29 peak area %
- Purity - 3 months (peak area %) ([6]; 40° C./75% RH): 99.23 peak area %
- XRPD - 3 months ([6]; 40° C./75% RH): Crystal form III
- Purity - 7 days (peak area %) ([6]; 60° C. (closed)): 99.35 peak area %
- Purity - 1 month (peak area %) ([6]; 60° C.): 99.28 peak area %
- Purity - 3 months (peak area %) ([6]; 60° C.): 99.25 peak area %
- XRPD - 3 months ([6]; 60° C.): Crystal form III
- Initial purity (peak area %) [6]: 99.34 peak area %
- Initial purity (peak area %) ([6]; listed as crystal form III): 99.33 peak area %
- XRPD of remaining solid ([7]; FaSSIF, 0.5 h): Unchanged
- pH ([7]; FaSSIF, 0.5 h): 6.4
- XRPD of remaining solid ([7]; FaSSIF, 2 h): Unchanged
- pH ([7]; FaSSIF, 2 h): 6.4
- XRPD of remaining solid ([7]; FaSSIF, 24 h): Unchanged
- pH ([7]; FaSSIF, 24 h): 6.4
- XRPD of remaining solid ([7]; FeSSIF, 0.5 h): Unchanged
- pH ([7]; FeSSIF, 0.5 h): 4.9
- Solubility ([7]; FeSSIF, 2 h): 88 µg/mL (≈ 176 µM)
- XRPD of remaining solid ([7]; FeSSIF, 2 h): Unchanged
- pH ([7]; FeSSIF, 2 h): 4.8
- Solubility ([7]; FeSSIF, 24 h): 120 µg/mL (≈ 240 µM)
- XRPD of remaining solid ([7]; FeSSIF, 24 h): Unchanged
- pH ([7]; FeSSIF, 24 h): 4.9
- pH ([7]; SGF, 0.5 h): 1.0
- solubility at 0.5 h ([7]; simulated gastric fluid, thermodynamic from solid, SGF, 0.5 h, visual observation): > 5000 µg/mL
